Measured values reported in patent publication US9248163B2, “Insulin-like growth factor binding protein 7 for treatment of cancer” (University of Massachusetts, priority 2007, dated 2016).

Tested on: SK-MEL-28 cells
Experiment: Immunoblot analysis of SMARCB1, BNIP3L and activated caspase 3
Format: cell-based, human
Conditions: 10 μg/ml
Method: To prepare cell extracts, cells were lysed in Laemmli buffer; for phospho-proteins, cells were lysed in the presence of a phosphatase inhibitor cocktail (Sigma). To prepare conditioned media, cells were grown in Opti-MEM™ (Invitrogen) for 24 hours, and media was harvested and concentrated using Centricon™ plus 20 tubes (Millipore). Conditioned media was normalized to cell number prior to loading the gel. For the experiments shown in FIGS. 3D and 4C, rIGFBP7 was added to the culture medium at a concentration of 10 μg/ml. For the MEK/RAF inhibitor experiment of FIG. 4D, SK-MEL-28 cells were treated with 2 μg/ml or 10 μg/ml rIGFBP7, 20 μM or 40 μM of the MEK inhibitor PD98054 (Calbiochem), or 5 nM or 10 nM the RAF inhibitor GW5074 (Sigma) for 24 hours prior to harvesting cells. Proteins were resolved by SDS-PAGE and transferred to nitrocellulose. Blots were probed with the following antibodies: α-p16 (Abcam), α-acetylated H3K9 (Upstate), α-IGFBP7 (Santa Cruz), α-SMARCB1 (Abnova), α-BNIP3L (Proscience), α-BRAFV600E (Santa Cruz), α-cleaved caspase-3 p11 (Santa Cruz), α-β-actin (Sigma), α-phospho-ERK (Cell Signaling) or α-ERK (Cell Signaling).

rIGFBP7: purified recombinant human IGFBP7, C-terminal Flag-tagged, from baculovirus-infected Sf9 insect cells
apoptosis by caspase 3 activation: apoptosis occurred as evidenced by caspase 3 activation
expression of SMARCB1 and BNIP3L: significantly increased
